These results are taken from patent US10214724B2, “Methods for differentiation of human pluripotent stem cells to brain microvascular endothelial cells” (Wisconsin Alumni Research Foundation, priority 2016, dated 2019).

In assay [1] the test system is IMR90-4 induced pluripotent stem cells. The assay can be described thus: Brachyury expression after CHIR99021 treatment (immunostaining, flow cytometry). The class given is cell-based, human. The conditions noted are these: 6 μM, 24 hr treatment in DeSR1; IMR90-4 iPSCs. The protocol: Given the roles of canonical Wnt signaling in both mesoderm specification and BBB development, we first treated hPSCs with CHIR99021, a GSK-3β inhibitor and Wnt agonist, to direct hPSCs to mesoderm-derived endothelial progenitors. Prior to treatment, IMR90-4 induced pluripotent stem cells (iPSCs) were seeded on a Matrigel-coated six-well plate at a density of 35×10^3 cells/cm^2 and expanded in an undifferentiated state for three days in mTeSR1™ (FIG. 1A). […] After 24 hours, the medium was removed and cells were transitioned to DeSR2 (DeSR1 plus B27 supplement) for another five days with daily medium changes. At day 0, pluripotency was verified by OCT4, NANOG and TRA-1-60 immunostaining (FIGS. 1B-D). After 24 hr of CHIR99021 treatment, almost 100% of the cells expressed brachyury, assessed by immunostaining (FIG. 1E) and flow cytometry (FIG. 1F), indicating progression to primitive streak. […] At day 4, more than 90% of the cells expressed the intermediate mesoderm marker PAX2 (FIGS. 1G, 1H) and PAX2 expression peaked at day 6 (FIG. 5). […]
Cells were dissociated with Accutase™ and fixed in 1% PFA for 15 min at room temperature, then washed with 0.5% BSA (Bio-Rad) plus 0.1% Triton-X100 three times. […] Data were collected on a FACSCaliber flow cytometer (Beckton Dickinson) and analyzed using FlowJo. […]

The subject of assay [2] is tight junction related genes TJP1, CLDN5 and OCLN and efflux transporters ABCG2, ABCC1, and ABCB1. Put plainly: Quantitative RT-PCR of tight junction and transporter genes with or without RA. The conditions noted are these: 10 μM RA day 6 to day 8; qPCR at day 8. The class given is cell-based, human.
Protocol: Total RNA was extracted with the RNeasy mini kit (QIAGEN) and treated with DNase (QIAGEN). 1 μg total RNA was reverse transcribed into cDNA via Oligo (dT) with Superscript III Reverse Transcriptase (Invitrogen). Real-time quantitative PCR was done in triplicate with iQSYBR Green™ SuperMix (Bio-Rad). GAPDH was used as an endogenous housekeeping control.
Assay [3] deals with hPSC-derived BMECs. Put plainly: TEER of hPSC-derived BMECs on Transwells. Format: cell-based, human. To be noted: cells differentiated in the presence of RA; replated day 8, measured at day 10. The protocol: BMECs were differentiated as shown in FIG. 1A in the presence or absence of RA, as indicated. (A) At day 8 expression of tight junction and transporter genes was assessed by qPCR. (B) Flow cytometry for CD31 expression was performed at days 6 and 8. (C) Pgp expression was quantified by flow cytometry at day 10. At day 6, medium was switched to hESFM containing or lacking RA, as indicated. (D) At day 8, cells were replated onto Matrigel®-coated Transwell® membranes at 10^6 cells/cm^2 in the presence or absence of 10 μM Y27632 (ROCK inhibitor). Y27632 was added to increase attachment (Pipparelli et al., PloS one 2013, 8:e62095) of cells differentiated in the absence of RA and permit confluent monolayer formation. TEER was measured at day 10, two days after replating (D). (E, G) Occludin and (F, G) ZO-1 expression and localization were assessed by flow cytometry and immunostaining at day 10. Red arrows indicate non-uniform occludin or ZO-1. Claudin-5 expression at day 10 was assessed by flow cytometry (H, I). (I) At day 10, expression level of claudin-5 in BMECs differentiated in the presence or absence of RA were assessed by flow cytometry. (J) Localization and expression of claudin-5 of cells differentiated in the absence of RA was determined via immunostaining (white arrows indicate non-positive claudin-5 and red arrows indicate discontinuous claudin-5). […]

Assay [4] concerns hPSC-derived BMECs. Put plainly: Flow cytometry of BMEC marker proteins (claudin-5, Pgp, occludin, ZO-1) with or without RA. Format: cell-based, human. An excerpt: Data were collected on a FACSCaliber flow cytometer (Beckton Dickinson) and analyzed using FlowJo.
In general terms: Flow cytometry measures light scatter and fluorescence of single cells or particles in a stream.

Assay [5] deals with hPSC-derived BMECs. The assay can be described thus: ICAM-1 induction by TNF-α. To be noted: 10 ng/mL TNF-α for 16 hours; day 10 hPSC-derived BMECs.
Protocol: (D-F) ICAM-1 induction in hPSC-derived BMECs. hPSC-derived BMECs at day 10 were treated with 10 ng/mL of TNF-α for 16 hours. Cells were stained for ICAM-1 (D) before and (E) after TNF-α treatment. (F) Cells were dissociated or dissociated with Accutase™ and ICAM-1 expression quantified by flow cytometry before and after TNF-α treatment. […] Data were collected at least from three independent samples and are represented as mean±SEM. **p<0.01, ***p<0.001.

For `Cc1c[nH]c(-c2cnc(NCCNc3ccc(C#N)cn3)nc2-c2ccc(Cl)cc2Cl)n1` [CHIR99021], the cells expressing brachyury in assay [1] is given as about 100%.
As for `CC1=C(/C=C/C(C)=C/C=C/C(C)=C/C(=O)O)C(C)(C)CCC1` [RA, retinoic acid], in assay [2], the “expression of TJP1, CLDN5, OCLN, ABCG2, ABCC1 and ABCB1 in cells exposed to RA vs. lacking RA” value is reported as 3-20 fold. In addition, the TEER in the assay on hPSC-derived BMECs [3] is ~4000 Ω·cm^2. Besides, in the assay with hPSC-derived BMECs [4] (RA-treated cells, day 10, flow cytometry (around 60% in the absence of RA)), the “cells expressing claudin-5” value turned out to be 100%. Besides, the “cells expressing Pgp” value in the assay with hPSC-derived BMECs [4] (differentiated in the presence of RA, day 10, flow cytometry) was about 100%.
Take TNF-α: the ICAM-1 expression result with hPSC-derived BMECs [5] is “upregulation”.
